The text below walks through data of patent US7928264B2, “Aminoalcohol derivatives” (Astellas Pharma Inc., priority 2004, dated 2011).

This test has as its system increase in intravesical pressure induced by carbachol in anesthetized dog. The test can be described thus: Effect on the increase in intravesical pressure induced by carbachol in anesthetized dog. The test is classed as in vivo. To be noted: 0.032 mg/kg, administered intradermally 30 minutes before carbachol (1.8 μg/kg); female Beagle dogs under halothane anesthesia. The method, then:
Effect on the increase in intravesical pressure induced by carbachol in anesthetized dog
Female Beagle dogs weighing 8.0-15.0 kg were fasted for 24 hours and maintained under halothane anesthesia. A 12F Foley catheter was lubricated with water soluble jelly, inserted into the urethral orifice, and advanced approximately 10 cm until the balloon tip was placed well inside the bladder. The balloon was then inflated with 5 ml of room air and catheter slowly withdrawn just part the first resistance that was felt at the bladder neck. Urine was completely drained out through the catheter, and 30 ml of biological saline was infused. The catheter was connected to pressure transducer, and intravesical pressure (IVP) was continuously recorded. The test compound was administered intradermally at 30 minutes before the administration of carbachol (1.8 μg/kg). Percent inhibition of IVP increase by test compound was calculated by dividing IVPa (IVP increase induced by carbachol after test compound administration) by IVPb (IVP increase induced by carbachol just before test compound administration).

As to `Cl.O=C(NS(=O)(=O)CCO)c1ccc(-c2ccc(CCNC[C@H](O)c3ccccc3)cc2)cc1OC1CCCCC1` [Test Compound (1), 3-(Cyclohexyloxy)-N-[(2-hydroxyethyl)sulfonyl]-4′-[2-[[(2R)-2-hydroxy-2-phenylethyl]amino]ethyl]-4-biphenylcarboxamide hydrochloride], the “Percent inhibition of IVP increase” value was determined as 78%.
